From patent US6444454B1, “Method for increasing the gene expression of saccharose synthase” (Forschungszentrum Julich GmbH, priority 1997, dated 2002)

Columns and labels:
Format in all cases: biochemical
Saccharose Synthase [1] = target: T1, Saccharose Synthase (Solanum tuberosum, UniProt P10691); test: acceptance of different NDP's in saccharose splitting; settings: NDP 1.6 mM, saccharose 500 mM, 0.035 U enzyme, pH 7.6, 30° C.
T1 construct: made in house; host or cells: Saccharomyces cerevisiae strain 22574d, plasmid pDRSuSy (pDR195, proton-ATPase promoter)
T1 sequence (P10691 whole entry): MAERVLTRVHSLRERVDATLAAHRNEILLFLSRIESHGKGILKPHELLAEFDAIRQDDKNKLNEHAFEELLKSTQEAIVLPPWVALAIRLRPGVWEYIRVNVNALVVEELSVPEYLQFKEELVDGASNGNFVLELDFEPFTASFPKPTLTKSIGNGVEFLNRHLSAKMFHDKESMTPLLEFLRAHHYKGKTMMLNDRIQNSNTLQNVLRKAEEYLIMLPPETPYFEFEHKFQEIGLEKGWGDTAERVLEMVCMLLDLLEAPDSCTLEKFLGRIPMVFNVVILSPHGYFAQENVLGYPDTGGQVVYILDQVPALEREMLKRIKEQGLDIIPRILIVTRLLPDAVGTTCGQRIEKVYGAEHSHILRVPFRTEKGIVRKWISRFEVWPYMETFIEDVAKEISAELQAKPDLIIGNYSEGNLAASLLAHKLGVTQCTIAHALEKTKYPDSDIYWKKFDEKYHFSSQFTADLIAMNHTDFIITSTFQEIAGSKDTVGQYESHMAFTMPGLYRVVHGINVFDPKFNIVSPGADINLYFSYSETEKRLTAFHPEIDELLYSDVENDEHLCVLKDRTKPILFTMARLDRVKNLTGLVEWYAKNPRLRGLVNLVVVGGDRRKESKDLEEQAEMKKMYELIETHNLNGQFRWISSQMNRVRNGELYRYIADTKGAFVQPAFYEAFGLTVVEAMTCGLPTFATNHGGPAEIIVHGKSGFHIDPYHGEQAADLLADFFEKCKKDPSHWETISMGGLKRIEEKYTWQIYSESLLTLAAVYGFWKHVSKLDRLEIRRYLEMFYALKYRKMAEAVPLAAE
Description: Initially the acceptance of the recombinant saccharose synthase for different NDP's in saccharose splitting was investigated. The reaction conditions was as follows: [table] The reactions with different NDP's were carried out at a temperature of 30° C.

Saccharose Synthase [2] = target: T1, Saccharose Synthase; test: Michaelis-Menten-Kinetics of saccharose splitting with UDP; settings: UDP 1.6 mM, 14 mU enzyme, pH 7.6, 30° C., 10 minutes
Description: In addition, the Michaelis-Menten-Kinetics of the saccharose splitting with the recombinant saccharose synthase with UDP as a function of saccharose was determined.
The reaction condition for this were as follows:
The reactions were carried out at a temperature of 30° C.; the reaction time amounted in each case to 10 minutes.
In FIG. 5, the Michaelis-Menten-Kinetics of saccharose synthase as a function of saccharose concentration is shown. […] The concentrations of more than 600 mM saccharose substrate excess limiting sets in.

Saccharose Synthase [3] = target: T1, Saccharose Synthase; test: splitting of disaccharides with UDP; settings: disaccharide 250 mM, UDP 2 mM, 24 hours at 30° C.
Description: For the synthase of UDP-2-Desoxyglucose and UDP-N-Acetylglucoseamine, the following reaction composition is used. [table] The reaction mixture is incubated for 24 hours at 30° C. and the reaction stopped at 95° over a period of 5 minutes.

Molecule	acceptance of NDP's in saccharose splitting as a function of reaction time (sequence) (Saccharose Synthase [1])	further results
Nc1ccn([C@@H]2O[C@H](COP(=O)(O)OP(=O)(O)O)[C@@H](O)[C@H]2O)c(=O)n1 [CDP]	UDP>ADP=TDP>CDP>GDP	–
OC[C@H]1O[C@@](CO)(O[C@H]2O[C@H](CO)[C@@H](O)[C@H](O)[C@H]2O)[C@@H](O)[C@@H]1O [saccharose]	–	Km (Saccharose Synthase [2]): 66 mM; saccharose concentration at which substrate excess limiting sets in (Saccharose Synthase [2]): more than 600 mM
OC[C@H]1OC(CO)(O[C@@H]2C[C@@H](O)[C@H](O)[C@@H](CO)O2)[C@@H](O)[C@@H]1O (stereo partly drawn) [two desoxy saccharose, 2-desoxysaccharose]	–	disaccharide split off (Saccharose Synthase [3]; 0.11 U saccharose synthase): 5.9%
Nc1ncnc2c1ncn2[C@@H]1O[C@H](COP(=O)(O)OP(=O)(O)O)[C@@H](O)[C@H]1O [ADP]	UDP>ADP=TDP>CDP>GDP	–
N-acetyl saccharosamine	–	disaccharide converted (Saccharose Synthase [3]; 1.25 U of the enzyme): 12.4%
Nc1nc2c(ncn2[C@@H]2O[C@H](COP(=O)(O)OP(=O)(O)O)[C@@H](O)[C@H]2O)c(=O)[nH]1 [GDP]	UDP>ADP=TDP>CDP>GDP	–

Now from value to molecule, other results behind:

acceptance of NDP's in saccharose splitting as a function of reaction time (sequence) (Saccharose Synthase [1])	Molecule	further results
UDP>ADP=TDP>CDP>GDP	O=c1ccn([C@@H]2O[C@H](COP(=O)(O)OP(=O)(O)O)[C@@H](O)[C@H]2O)c(=O)[nH]1 [UDP]	–
UDP>ADP=TDP>CDP>GDP	Cc1cn([C@H]2C[C@H](O)[C@@H](COP(=O)(O)OP(=O)(O)O)O2)c(=O)[nH]c1=O [TDP]	–
